pIC50: −log10 of the molar value.

In one assay the target is hROMK1 (Kir1.1) (Homo sapiens (Human), UniProt P48048). The experiment in a line: ^86Rb^+ Efflux Assay. The note with it: CHO-DHFR- cells stably expressing hROMK1 (Kir1.1); value in parentheses at the end of each Example; read-out: IC50 in the ^86Rb^+ Efflux Assay. Format: cell-based.
hROMK1 (Kir1.1), sequence (P48048 whole entry): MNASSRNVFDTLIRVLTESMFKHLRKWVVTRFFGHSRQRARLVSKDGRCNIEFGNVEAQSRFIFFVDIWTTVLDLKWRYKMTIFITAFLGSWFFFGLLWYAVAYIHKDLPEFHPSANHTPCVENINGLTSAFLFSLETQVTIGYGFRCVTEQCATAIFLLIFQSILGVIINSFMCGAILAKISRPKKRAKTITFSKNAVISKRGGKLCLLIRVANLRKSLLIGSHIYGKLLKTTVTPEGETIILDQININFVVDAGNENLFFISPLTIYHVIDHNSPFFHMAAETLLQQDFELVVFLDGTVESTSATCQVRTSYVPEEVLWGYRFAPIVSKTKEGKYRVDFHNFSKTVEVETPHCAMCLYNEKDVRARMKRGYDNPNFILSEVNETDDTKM
As for `N#Cc1ccc2c(c1)OCCC2CN1CCN(CCc2ccc3c(c2)COC3=O)CC1` (stereo not drawn) [Example 36, 4-({4-[2-(1-Oxo-1,3-dihydro-2-benzofuran-5-yl)ethyl]piperazin-1-yl}methyl)-3,4-dihydro-2H-chromene-7-carbonitrile], the pIC50 is 7.04. The same measure, in the same setting: for `N#Cc1ccc2c(c1)CCCC2CN1CCN(CCc2ccc3c(c2)COC3=O)CC1` (stereo not drawn) [Example 37, 5-({4-[2-(1-Oxo-1,3-dihydro-2-benzofuran-5-yl)ethyl]piperazin-1-yl}methyl)-5,6,7,8-tetrahydronaphalene-2-carbonitrile] the value was 6.34; for `N#Cc1cc(F)c(CCN2CCN(CCc3ccc4c(c3)COC4=O)CC2)cc1F` [Example 39, 2,5-Difluoro-4-[2-[4-[2-(1-oxo-3H-isobenzofuran-5-yl)ethyl]piperazin-1-yl]ethyl]benzonitrile], 6.64; for `O=C1OCc2cc(CCN3CCN(CCc4ccc(-n5cnnn5)nc4)CC3)ccc21` [Example 42, 5-[2-[4-[2-[6-(Tetrazol-1-yl)-3-pyridyl]ethyl]piperazin-1-yl]ethyl]-3H-isobenzofuran-1-one], 6.04. On the same count and under the same terms, for `Cc1c(CCN2CCN(CCc3ccc(-n4cnnn4)nc3)CC2)ccc2c1COC2=O` [Example 43, 4-Methyl-5-[2-[4-[2-[6-(tetrazol-1-yl)-3-pyridyl]ethyl]piperazin-1-yl]ethyl]-3H-isobenzofuran-1-one] the value was 6.21. The same measure, in the same setting: in the case of `COc1cc(C(C)CN2CCN(CCc3ccc4c(c3)COC4=O)CC2)ccc1C#N` (stereo not drawn) [Example 44, 2-Methoxy-4-[1-methyl-2-[4-[2-(1-oxo-3H-isobenzofuran-5-yl)ethyl]piperazin-1-yl]ethyl]benzonitrile] it was 6.55; in that of `COc1cc(CC(C)N2CCN(CCc3ccc4c(c3)COC4=O)CC2)ccc1C#N` (stereo not drawn) [Example 48, 2-Methoxy-4-[2-[4-[2-(1-oxo-3H-isobenzofuran-5-yl)ethyl]piperazin-1-yl]propyl]benzonitrile], 6.68; in that of `Cc1c(CCN2CCN(CCc3ccc(C#N)c(OC(F)F)c3)CC2)ccc2c1COC2=O` [Example 49, 2-(Difluoromethoxy)-4-[2-[4-[2-(4-methyl-1-oxo-3H-isobenzofuran-5-yl)ethyl]piperazin-1-yl]ethyl]benzonitrile], 6.80. As for `COc1cc(CCN2CCN(CCc3ccc4c(c3)COC4=O)C(C(F)(F)F)C2)ccc1C#N` (stereo not drawn) [Example 51, 2-Methoxy-4-(2-{4-[2-(1-oxo-1,3-dihydro-2-benzofuran-5-yl)ethyl]-3-(trifluoromethyl)piperazin-1-yl}ethyl)benzonitrile], the pIC50 was 6.19. Still for that read-out and setting: in the case of `COc1cc(CCN2CCN(CCc3ccc4c(c3)COC4=O)CC2)c(F)cc1C#N` [Example 52, 5-Fluoro-2-methoxy-4-(2-{4-[2-(1-oxo-1,3-dihydro-2-benzofuran-5-yl)ethyl]piperazin-1-yl}ethyl)benzonitrile] it was 7.17; in that of `COc1cc(CCN2CCN(CCc3ccc4c(c3C)COC4=O)CC2)c(F)cc1C#N` [Example 53, 5-Fluoro-2-methoxy-4-(2-{4-[2-(4-methyl-1-oxo-1,3-dihydro-2-benzofuran-5-yl)ethyl]piperazin-1-yl}ethyl)benzonitrile], 7.47; in that of `COc1cc(CCN2CCN(CCc3cc(OC)c(C#N)cc3F)CC2)c(F)cc1C#N` [Example 54, 4,4′-(Piperazine-1,4-diyldiethane-2,1-diyl)bis(5-fluoro-2-methoxybenzonitrile)], 6.47. For `COc1cc(CCN2CCN(CCc3ccc4c(c3)COC4=O)CC2C(F)(F)F)ccc1C#N` (stereo not drawn) [Example 56, 2-Methoxy-4-(2-{4-[2-(1-oxo-1,3-dihydro-2-benzofuran-5-yl)ethyl]-2-(trifluoromethyl)piperazin-1-yl}ethyl)benzonitrile], the pIC50 was 6.57.

Staying with this assay, now noted: Table 1; CHO-DHFR- cells stably expressing hROMK1 (Kir1.1); read-out: ^86Rb^+ Efflux Assay IC50.
Consider `Cc1c(CCN2CCN(CCc3ccc(-n4cnnn4)nc3)CC2)ccc2c1COC2=O` [Example 43, 4-Methyl-5-[2-[4-[2-[6-(tetrazol-1-yl)-3-pyridyl]ethyl]piperazin-1-yl]ethyl]-3H-isobenzofuran-1-one], for which the pIC50 is 6.21. Consider `COc1cc(CCN2CCN(CCc3ccc4c(c3)COC4=O)CC2C(F)(F)F)ccc1C#N` (stereo not drawn) [Example 56, 2-Methoxy-4-(2-{4-[2-(1-oxo-1,3-dihydro-2-benzofuran-5-yl)ethyl]-2-(trifluoromethyl)piperazin-1-yl}ethyl)benzonitrile], for which the pIC50 is 6.57.

Broadly, the pIC50 is −log10 of the IC50, conventionally taken in molar units.
